Patent publication US20220168430A1, “THERAPEUTIC METHODS FOR TREATING HEPATITIS B” (priority 2019, published 2022)
Values joined by “and” are separate entries in the source; they are usually repeats but may differ in a detail not shown here. Equal entries are not always repeated. Where two headings read alike, the source gives them in different places.

Legend:
HepG2.2.15 cells = format: cell-based, human; conditions: Cmpd 2 μM: 0.01, 0.0032, 0.001, 0.0003, 0.0001, 0
From the text: The combination results were completed in duplicate with each assay consisting of 4 technical repeats.
The combination results were completed in duplicate with each assay consisting of 4 technical repeats. In this assay system, the combination results in additive inhibition of HBV DNA.

HBV DNA = HBV DNA by branched DNA assay in HepG2.2.15 cells, two-compound combinations (Examples 13-14); format: cell-based, HBV; HepG2.2.15 (human hepatoblastoma); conditions: for EC50: Hepatitis B virus; for Average percent inhibition versus negative control: n = 4; for Additive percent inhibition versus negative control: Compound (2) μM: 0.01, 0.0032, 0.001, 0.0003, 0.0001, 0
Method: In vitro combination studies were conducted using the method of Prichard and Shipman (Prichard M N, and Shipman C Jr., Antiviral Research, 1990, 14(4-5), 181-205; and Prichard M N, et. al., MacSynergy II). The HepG2.2.15 cell culture system is a cell line derived from human hepatoblastoma HepG2 cells, which have been stably transfected with the adw2-subtype HBV genome as previously explained in Sells et al. (Proc. Natl. Acad. Sci. U. S. A, 1987. Vol 84:1005-1009). HepG2.2.15 cells secrete Dane-like viral particles, produce HBV DNA, and produce the viral proteins, HBeAg and HBsAg.
Although inhibition of HBV DNA, RNA and proteins can be determined in the presence of these inhibitors, we used the branched DNA assay due to its ability to quantitatively measure the level HBV DNA.
Detection of HBV DNA. The branched DNA assay (bDNA) was used to determine the effect of compound combinations on HBV DNA. HepG2.2.15 (10,000 cells/well) were cultured in DMEM medium plus supplements as described above. The next day, the cells were replenished with fresh medium followed by the addition of Inhibitor A and B, both were dissolved in 100% DMSO. The microtiter cell plates were incubated for a total duration of 6 days at 37° C. without replenishing media or compound. The serial dilutions spanned concentration ranges respective to the EC50 value of each compound. In addition to combination testing of the compounds, both inhibitors A and B were also tested singly.
The level of bDNA present in the inhibitor-treated supernatant wells was measured using a Quantigene 2.0 bDNA assay kit (Affymetrix, Santa Clara, Calif.) with HBV specific custom probe set (genotype D ayw; DF-10739) and manufacturer's instructions after performing a proteinase K digestion in lysis. The plates were read using a Victor luminescence plate reader (PerkinElmer Model 1420 Multilabel counter) and the RLU data generated from each well was calculated as inhibition of the untreated control wells. The data was analyzed using the interpretive guidelines established by Prichard and Shipman combination model using the MacSynergy II program (Prichard M N, Shipman C Jr. Antiviral Research, 1990. Vol 14(4-5):181-205; Prichard M N, Aseltine KR, and Shipman, C. MacSynergy II. University of Michigan 1992) to determine whether the combinations were synergistic, additive or antagonistic using the interpretive guidelines established by Prichard and Shipman as follows: synergy volumes <25 μM2% (log volume <2) at 95% CI=probably insignificant; 25-50 (log volume >2 and <5)=minor but significant 50-100 (log volume >5 and <9)=moderate, may be important in vivo; Over 100 (log volume >9)=strong synergy, probably important in vivo; volumes approaching 1000 (log volume >90)=unusually high, check data. The RLU data from the single compound treated cells were analyzed using XL-Fit module in Microsoft Excel to determine EC50 values using a 4-parameter curve fitting algorithm.

[1] = TAF 0.0002 μM, Cmpd 2 μM: 0.01, 0.0032, 0.001, 0.0003, 0.0001, 0
[2] = TAF 0.0006 μM, Cmpd 2 μM: 0.01, 0.0032, 0.001, 0.0003, 0.0001, 0
[3] = TAF 0.0020 μM, Cmpd 2 μM: 0.01, 0.0032, 0.001, 0.0003, 0.0001, 0
[4] = TAF 0.0064 μM, Cmpd 2 μM: 0.01, 0.0032, 0.001, 0.0003, 0.0001, 0
[5] = TAF 0.0201 μM, Cmpd 2 μM: 0.01, 0.0032, 0.001, 0.0003, 0.0001, 0
[6] = TAF 0.0634 μM, Cmpd 2 μM: 0.01, 0.0032, 0.001, 0.0003, 0.0001, 0
[7] = TAF 0.2002 μM, Cmpd 2 μM: 0.01, 0.0032, 0.001, 0.0003, 0.0001, 0
[8] = TAF 0.6329 μM, Cmpd 2 μM: 0.01, 0.0032, 0.001, 0.0003, 0.0001, 0
[9] = TAF 2.0 μM, Cmpd 2 μM: 0.01, 0.0032, 0.001, 0.0003, 0.0001, 0

## COCCCOc1cc2c(nc1OC)-c1cc(=O)c(C(=O)O)cn1[C@H](C(C)C)C2 [Compound 2]
HepG2.2.15 cells; ETV 0 μM
  Average percent of cell viability vs control: 92.68% and 81.35% and 91.36% and 92.57% and 80.37%
HepG2.2.15 cells; TAF 0 μM
  Average percent of cell viability vs control: 104.89% and 104.08% and 103.79% and 101.80% and 99.27%
HBV DNA; ETV 0 μM, Cmpd 2 μM: 0.01, 0.0032, 0.001, 0.0003, 0.0001, 0
  MacSynergy Volume Calculations, 99.99% confidence interval (Bonferroni Adj. 96%): 0.00
HBV DNA; HepG2.2.15, HepG2.2.15, bDNA quantitation, study with ETV as Inhibitor A, read-out: Inhibitor B EC50
  EC50: 0.9 nM
HBV DNA; HepG2.2.15, HepG2.2.15, bDNA quantitation, study with TAF as Inhibitor A, read-out: Inhibitor B EC50
  EC50: 0.6 nM
HBV DNA; TAF 0 μM, Cmpd 2 μM: 0.01, 0.0032, 0.001, 0.0003, 0.0001, 0
  MacSynergy Volume Calculations, 99.99% confidence interval (Bonferroni Adj. 96%): 0

## CC(C)OC(=O)[C@H](C)N[P@](=O)(CO[C@H](C)Cn1cnc2c(N)ncnc21)Oc1ccccc1 [TAF, tenofovir alafenamide]
HepG2.2.15 cells; TAF 0.0002 μM
  Average percent of cell viability vs control: 103.95%
HepG2.2.15 cells; TAF 0.0006 μM
  Average percent of cell viability vs control: 104.32%
HepG2.2.15 cells; TAF 0.0020 μM
  Average percent of cell viability vs control: 103.73%
HepG2.2.15 cells; TAF 0.0064 μM
  Average percent of cell viability vs control: 101.18%
HepG2.2.15 cells; TAF 0.0201 μM
  Average percent of cell viability vs control: 101.33%
HepG2.2.15 cells; TAF 0.0634 μM
  Average percent of cell viability vs control: 103.56%
HepG2.2.15 cells; TAF 0.2002 μM
  Average percent of cell viability vs control: 96.48%
HepG2.2.15 cells; TAF 0.6329 μM
  Average percent of cell viability vs control: 80.67%
HepG2.2.15 cells; TAF 2.0 μM
  Average percent of cell viability vs control: 88.67%
HBV DNA; HepG2.2.15, read-out: Inhibitor A EC50
  EC50: 54 nM
HBV DNA; [1]
  MacSynergy Volume Calculations, 99.99% confidence interval (Bonferroni Adj. 96%): 0
  Average percent inhibition versus negative control: 8.88%
HBV DNA; TAF 0.0002 μM
  Additive percent inhibition versus negative control: 8.88%
HBV DNA; [2]
  MacSynergy Volume Calculations, 99.99% confidence interval (Bonferroni Adj. 96%): 0
  Average percent inhibition versus negative control: 12.91%
HBV DNA; TAF 0.0006 μM
  Additive percent inhibition versus negative control: 12.91%
HBV DNA; [3]
  MacSynergy Volume Calculations, 99.99% confidence interval (Bonferroni Adj. 96%): 0
  Average percent inhibition versus negative control: 14.28%
HBV DNA; TAF 0.0020 μM
  Additive percent inhibition versus negative control: 14.28%
HBV DNA; [4]
  MacSynergy Volume Calculations, 99.99% confidence interval (Bonferroni Adj. 96%): 0
  Average percent inhibition versus negative control: 19.87%
HBV DNA; TAF 0.0064 μM
  Additive percent inhibition versus negative control: 19.87%
HBV DNA; [5]
  MacSynergy Volume Calculations, 99.99% confidence interval (Bonferroni Adj. 96%): 0
  Average percent inhibition versus negative control: 25.36%
HBV DNA; TAF 0.0201 μM
  Additive percent inhibition versus negative control: 25.36%
HBV DNA; [6]
  MacSynergy Volume Calculations, 99.99% confidence interval (Bonferroni Adj. 96%): 0
  Average percent inhibition versus negative control: 42.96%
HBV DNA; TAF 0.0634 μM
  Additive percent inhibition versus negative control: 42.96%
HBV DNA; [7]
  MacSynergy Volume Calculations, 99.99% confidence interval (Bonferroni Adj. 96%): 0
  Average percent inhibition versus negative control: 62.7%
HBV DNA; TAF 0.2002 μM
  Additive percent inhibition versus negative control: 62.7%
HBV DNA; [8]
  MacSynergy Volume Calculations, 99.99% confidence interval (Bonferroni Adj. 96%): 0
  Average percent inhibition versus negative control: 76.45%
HBV DNA; TAF 0.6329 μM
  Additive percent inhibition versus negative control: 76.45%
HBV DNA; [9]
  MacSynergy Volume Calculations, 99.99% confidence interval (Bonferroni Adj. 96%): 0
  Average percent inhibition versus negative control: 87.21%
HBV DNA; TAF 2.0 μM
  Additive percent inhibition versus negative control: 87.21%

## C=C1[C@H](CO)[C@@H](O)C[C@@H]1n1cnc2c(=O)[nH]c(N)nc21 [ETV, entecavir]
HepG2.2.15 cells; ETV 3.17E−05 μM
  Average percent of cell viability vs control: 101.92%
HBV DNA
  MacSynergy Volume Calculations, 99.99% confidence interval (Bonferroni Adj. 96%): 0.00
HBV DNA; ETV 0.0001 μM, Cmpd 2 μM: 0.01, 0.0032, 0.001, 0.0003, 0.0001, 0
  Average percent inhibition versus negative control: −21.2%
HBV DNA; ETV 0.0001 μM
  Additive percent inhibition versus negative control: −21.2%
HBV DNA; ETV 0.001 μM, Cmpd 2 μM: 0.01, 0.0032, 0.001, 0.0003, 0.0001, 0
  Average percent inhibition versus negative control: 48.98%
HBV DNA; ETV 0.001 μM
  Additive percent inhibition versus negative control: 48.98%
HBV DNA; ETV 0.1 μM, Cmpd 2 μM: 0.01, 0.0032, 0.001, 0.0003, 0.0001, 0
  Average percent inhibition versus negative control: 85.09%
HBV DNA; ETV 0.1 μM
  Additive percent inhibition versus negative control: 85.09%
HBV DNA; ETV 1.0E−05 μM, Cmpd 2 μM: 0.01, 0.0032, 0.001, 0.0003, 0.0001, 0
  Average percent inhibition versus negative control: −88.53%
HBV DNA; ETV 1.0E−05 μM
  Additive percent inhibition versus negative control: −88.53%
HBV DNA; ETV 1.00E−06 μM, Cmpd 2 μM: 0.01, 0.0032, 0.001, 0.0003, 0.0001, 0
  Average percent inhibition versus negative control: −90.87%
HBV DNA; ETV 1.00E−06 μM
  Additive percent inhibition versus negative control: −90.87%
HBV DNA; ETV 3.16E−06 μM, Cmpd 2 μM: 0.01, 0.0032, 0.001, 0.0003, 0.0001, 0
  Average percent inhibition versus negative control: −90.2%
HBV DNA; ETV 3.16E−06 μM
  Additive percent inhibition versus negative control: −90.2%
HBV DNA; ETV 3.17E−05 μM, Cmpd 2 μM: 0.01, 0.0032, 0.001, 0.0003, 0.0001, 0
  Average percent inhibition versus negative control: −55.97%
HBV DNA; ETV 3.17E−05 μM
  Additive percent inhibition versus negative control: −55.97%
HBV DNA; HepG2.2.15, bDNA quantitation, read-out: Inhibitor A EC50
  EC50: 3.2 nM
